For assay [1], the target named is Proto-oncogene tyrosine-protein kinase Src (Homo sapiens) (UniProt P12931). Put plainly: Inhibition of human recombinant flag-tagged c-Src protein (86 to 536 residues) catalytic activity expressed in Escherichia coli BL21 (DE3) cells at 50 uM using biotinylated TK-substrate peptide as substrate preincubated for 1 hr followed by substrate addition and measured after 1 hr by HTRF assay relative to control. The note with it: time 2.0 hrs.

Assay [2] has the same target. Put plainly: Binding affinity to human recombinant flag-tag c-Src protein (86 to 536 residues) expressed in Escherichia coli BL21 (DE3) cells assessed as change in melting temperature at 1:5 ratio incubated for 25 mins by protein thermal shift assay.
For assay [3] the target is unchanged. Put plainly: Binding affinity to human recombinant flag-tag c-Src protein (86 to 536 residues) expressed in Escherichia coli BL21 (DE3) cells assessed as change in melting temperature at 1:10 ratio incubated for 25 mins by protein thermal shift assay.
Assay [4] has the same target. Put plainly: Binding affinity to human recombinant flag-tag c-Src protein (86 to 536 residues) expressed in Escherichia coli BL21 (DE3) cells assessed as change in melting temperature at 1:20 ratio incubated for 25 mins by protein thermal shift assay.

The structures appear in SMILES notation. Bounds are passed on as bounds.

Sequence of Proto-oncogene tyrosine-protein kinase Src (Homo sapiens) (P12931 2-536 limits assumed): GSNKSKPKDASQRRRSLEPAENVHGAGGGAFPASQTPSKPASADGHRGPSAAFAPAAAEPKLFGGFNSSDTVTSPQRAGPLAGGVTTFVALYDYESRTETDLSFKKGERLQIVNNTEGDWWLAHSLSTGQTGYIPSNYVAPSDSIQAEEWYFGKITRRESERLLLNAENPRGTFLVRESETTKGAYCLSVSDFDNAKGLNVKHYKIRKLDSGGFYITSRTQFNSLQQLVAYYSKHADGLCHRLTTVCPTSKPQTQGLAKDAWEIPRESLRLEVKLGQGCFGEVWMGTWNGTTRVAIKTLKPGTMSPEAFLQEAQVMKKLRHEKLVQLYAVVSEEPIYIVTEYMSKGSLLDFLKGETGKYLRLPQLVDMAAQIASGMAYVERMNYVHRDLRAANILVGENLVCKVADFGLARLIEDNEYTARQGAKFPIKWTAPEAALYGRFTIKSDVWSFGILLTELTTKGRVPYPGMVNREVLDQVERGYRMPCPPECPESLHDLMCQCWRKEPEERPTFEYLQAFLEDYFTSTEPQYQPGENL

For the molecule `O=C(NC1CCCC1)C(c1ccc(Cl)cc1)N(Cc1cccs1)C(=O)CCl` (stereo unspecified), the inhibition – broadly, the drop in the measured response relative to a control, in per cent – in assay [1] was more than 60%.
On to `COc1ccc(C(C(=O)NC2CCCC2)N(CCC2=CCCCC2)C(=O)CCl)cc1` (stereo unspecified), for which, in assay [1], the inhibition was more than 60%.
`O=C(NC1CCCC1)C(c1ccc(F)cc1)N(C(=O)CCl)C1CC1` (stereo unspecified): the ΔTm – broadly, the change in melting temperature against a reference sample – in assay [2] came to 1.5 °C; in assay [3] it was 2.56 °C; in assay [4], 3.3 °C. The inhibition in assay [1] was more than 60%.

Values taken from ChEMBL document CHEMBL5029171, “Dynamics of Post-Translational Modification Inspires Drug Design in the Kinase Family” (J Med Chem, 2021).
